Assays:
HEK293sieSTAT3(wt) [1] = test: drug sensitivity score (DSS), cytotoxicity CellTox Green (DSS (dimensionless)); higher = more cytotoxic; extreme values may be limits of the assay; settings: 72 h; STAT3 variant: wild type
Outline: (§1)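 Each value is one representative of two experiments in which HEK293 cells overexpressing wild-type or mutant STAT3 with a STAT3-dependent luciferase reporter were exposed to compounds at 5 concentrations (10-fold dilutions) for 72 hours at 37°C and 5% CO2. Readouts were CellTox Green fluorescence and then CellTiter-Glo luminescence, normalised to negative and positive control wells. The drug sensitivity score was based on the dose-response curve area and computed in Breeze.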

HEK293sieSTAT3(Y640F) [2] = test: as above; settings: 72 h; STAT3 variant: Y640F (constitutively active)
Outline: as §1

HEK293sieSTAT3(wt) [3] = test: drug sensitivity score (DSS), viability CellTiter-Glo (DSS (dimensionless)); higher = more growth inhibition; extreme values may be limits of the assay; settings: 72 h; STAT3 variant: wild type
Outline: as §1

HEK293sieSTAT3(Y640F) [4] = test: as above; settings: 72 h; STAT3 variant: Y640F (constitutively active)
Outline: as §1

| SMILES | drug sensitivity score (HEK293sieSTAT3(wt) [1]) | drug sensitivity score (HEK293sieSTAT3(Y640F) [2]) | drug sensitivity score (HEK293sieSTAT3(wt) [3]) | drug sensitivity score (HEK293sieSTAT3(Y640F) [4]) |
| --- | --- | --- | --- | --- |
| CCOc1ccn(-c2ccc(F)cc2)c(=O)c1C(=O)Nc1ccc(Oc2ccnc(N)c2Cl)c(F)c1 (top concentration tested 2500 nM) | 0 | 0 | 4.83 | 0.75 |
| O=c1[nH]c(=O)n([C@H]2C[C@H](O)[C@@H](CO)O2)cc1F [Floxuridine] (top concentration tested 10000 nM) | 1.28 | 0.42 | 29 | 27.2 |
| COC(=O)c1ccc2c(c1)NC(=O)/C2=C(\Nc1ccc(N(C)C(=O)CN2CCN(C)CC2)cc1)c1ccccc1 [Nintedanib] (top concentration tested 10000 nM) | 6.55 | 3.45 | 9.79 | 8 |
| CCCS(=O)(=O)Nc1ccc(F)c(C(=O)c2c[nH]c3ncc(-c4ccc(Cl)cc4)cc23)c1F [Vemurafenib] (top concentration tested 10000 nM) | 4.84 | 3.47 | 1.57 | 0 |
| C#Cc1cccc(Nc2ncnc3cc(OC)c(OCCCCCCC(=O)NO)cc23)c1 [CUDC-101] (top concentration tested 10000 nM) | 3.02 | 7.69 | 9.59 | 16.1 |
| O=C(CCCCCCNC(=O)c1cnc(N(c2ccccc2)c2ccccc2)nc1)NO [Rocilinostat] (top concentration tested 10000 nM) | 0.53 | 1.02 | 6.92 | 8 |
| Cc1c(C(=O)Nc2ccc(N3C[C@@H](C)O[C@@H](C)C3)nc2)cccc1-c1ccc(OC(F)(F)F)cc1 [Sonidegib] (top concentration tested 10000 nM) | 0 | 0 | 3.16 | 1.71 |
| CCN(CC)C(=S)SSC(=S)N(CC)CC [Disulfiram] (top concentration tested 100000 nM) | 30.4 | 30.9 | 30.2 | 31.1 |
| O=C(Nc1cccc(Cl)c1)Nc1ncc(CCNc2ncnc3ccsc23)s1 [SNS-314] (top concentration tested 1000 nM) | 2.17 | 0 | 5 | 5.69 |
| CN(CC(=O)N(Cc1ccc(C2CCCCC2)cc1)c1ccc(C(=O)O)cc1)S(=O)(=O)c1c(F)c(F)c(F)c(F)c1F [SH-4-54] (top concentration tested 25000 nM) | 9.04 | 5.59 | 10.8 | 10.1 |
| CO[C@H]1C[C@@H]2CC[C@@H](C)[C@@](O)(O2)C(=O)C(=O)N2CCCC[C@H]2C(=O)O[C@H]([C@H](C)C[C@@H]2CC[C@@H](OCCO)[C@H](OC)C2)CC(=O)[C@H](C)/C=C(\C)[C@@H](O)[C@@H](OC)C(=O)[C@H](C)C[C@H](C)/C=C/C=C/C=C/1C [Everolimus] (top concentration tested 100 nM) | 0 | 0 | 11.3 | 8.23 |
| C#Cc1cccc(Nc2ncnc3cc(OCCOC)c(OCCOC)cc23)c1 [Erlotinib] (top concentration tested 10000 nM) | 0 | 0 | 2.99 | 3.21 |
| O=C1NC(=O)[C@@H](c2cn3c4c(cccc24)CCC3)[C@@H]1c1c[nH]c2ccccc12 [Tivantinib] (top concentration tested 1000 nM) | 0.63 | 0 | 2.4 | 2.71 |
| Clc1ccc(Nc2nnc(Cc3ccncc3)c3ccccc23)cc1 [Vatalanib] (top concentration tested 10000 nM) | 0 | 0 | 1.89 | 0.9 |
| Cc1cc(C(C)Nc2ccccc2)c2nc(N3CCOCC3)cc(=O)n2c1 (centres undefined) [TGX-221] (top concentration tested 10000 nM) | 0 | 0 | 0 | 0.57 |
| Nc1nc(Cl)nc2c1ncn2[C@@H]1O[C@H](CO)[C@@H](O)[C@@H]1F [Clofarabine] (top concentration tested 10000 nM) | 7.13 | 3.51 | 20.3 | 18.6 |
| C[C@]12CC[C@@H]3c4ccc(O)cc4C[C@@H](CCCCCCCCC[S+]([O-])CCCC(F)(F)C(F)(F)F)[C@H]3[C@@H]1CC[C@@H]2O (some centres undefined) [Fulvestrant] (top concentration tested 1000 nM) | 0.46 | 0 | 1.8 | 1.69 |
| CC(=O)c1c(C)c2cnc(Nc3ccc(N4CCNCC4)cn3)nc2n(C2CCCC2)c1=O [Palbociclib] (top concentration tested 10000 nM) | 7.3 | 1.93 | 6.99 | 5.65 |
| C[C@]12CC[C@@H]3c4ccc(OC(=O)N(CCCl)CCCl)cc4CC[C@H]3[C@@H]1CC[C@@H]2O [Estramustine] (top concentration tested 10000 nM) | 0.3 | 0 | 0 | 0.65 |
| COc1cc2c(NC3CCN(C(C)C)CC3)nc(N3CCC(F)(F)CC3)nc2cc1OCCCN1CCCC1 [UNC0642] (top concentration tested 10000 nM) | 7.38 | 7.41 | 7.97 | 9.29 |
| COc1cc(F)c(F)c(Nc2ccc(I)cc2F)c1NS(=O)(=O)C1(C[C@H](O)CO)CC1 [Refametinib] (top concentration tested 10000 nM) | 0 | 0 | 1.58 | 2.4 |
